Structures can show the parent of a compound that is named as a salt.
Columns and labels:
[1] = biological target: Bile salt export pump (Homo sapiens, UniProt O95342); test: Inhibition of human BSEP overexpressed in Sf9 cell membrane vesicles assessed as uptake of [3H]-taurocholate in presence of ATP measured after 15 to 20 mins by membrane vesicle transport assay; type: ADME, cell-based
[2] = biological target: ATP-binding cassette sub-family C member 2 (Homo sapiens, UniProt Q92887); test: Inhibition of human MRP2 overexpressed in Sf9 cell membrane vesicles assessed as uptake of [3H]-estradiol-17beta-D-glucuronide in presence of ATP and GSH measured after 20 mins by membrane vesicle transport assay
ATP-binding cassette sub-family C member 2, sequence (Q92887 whole entry): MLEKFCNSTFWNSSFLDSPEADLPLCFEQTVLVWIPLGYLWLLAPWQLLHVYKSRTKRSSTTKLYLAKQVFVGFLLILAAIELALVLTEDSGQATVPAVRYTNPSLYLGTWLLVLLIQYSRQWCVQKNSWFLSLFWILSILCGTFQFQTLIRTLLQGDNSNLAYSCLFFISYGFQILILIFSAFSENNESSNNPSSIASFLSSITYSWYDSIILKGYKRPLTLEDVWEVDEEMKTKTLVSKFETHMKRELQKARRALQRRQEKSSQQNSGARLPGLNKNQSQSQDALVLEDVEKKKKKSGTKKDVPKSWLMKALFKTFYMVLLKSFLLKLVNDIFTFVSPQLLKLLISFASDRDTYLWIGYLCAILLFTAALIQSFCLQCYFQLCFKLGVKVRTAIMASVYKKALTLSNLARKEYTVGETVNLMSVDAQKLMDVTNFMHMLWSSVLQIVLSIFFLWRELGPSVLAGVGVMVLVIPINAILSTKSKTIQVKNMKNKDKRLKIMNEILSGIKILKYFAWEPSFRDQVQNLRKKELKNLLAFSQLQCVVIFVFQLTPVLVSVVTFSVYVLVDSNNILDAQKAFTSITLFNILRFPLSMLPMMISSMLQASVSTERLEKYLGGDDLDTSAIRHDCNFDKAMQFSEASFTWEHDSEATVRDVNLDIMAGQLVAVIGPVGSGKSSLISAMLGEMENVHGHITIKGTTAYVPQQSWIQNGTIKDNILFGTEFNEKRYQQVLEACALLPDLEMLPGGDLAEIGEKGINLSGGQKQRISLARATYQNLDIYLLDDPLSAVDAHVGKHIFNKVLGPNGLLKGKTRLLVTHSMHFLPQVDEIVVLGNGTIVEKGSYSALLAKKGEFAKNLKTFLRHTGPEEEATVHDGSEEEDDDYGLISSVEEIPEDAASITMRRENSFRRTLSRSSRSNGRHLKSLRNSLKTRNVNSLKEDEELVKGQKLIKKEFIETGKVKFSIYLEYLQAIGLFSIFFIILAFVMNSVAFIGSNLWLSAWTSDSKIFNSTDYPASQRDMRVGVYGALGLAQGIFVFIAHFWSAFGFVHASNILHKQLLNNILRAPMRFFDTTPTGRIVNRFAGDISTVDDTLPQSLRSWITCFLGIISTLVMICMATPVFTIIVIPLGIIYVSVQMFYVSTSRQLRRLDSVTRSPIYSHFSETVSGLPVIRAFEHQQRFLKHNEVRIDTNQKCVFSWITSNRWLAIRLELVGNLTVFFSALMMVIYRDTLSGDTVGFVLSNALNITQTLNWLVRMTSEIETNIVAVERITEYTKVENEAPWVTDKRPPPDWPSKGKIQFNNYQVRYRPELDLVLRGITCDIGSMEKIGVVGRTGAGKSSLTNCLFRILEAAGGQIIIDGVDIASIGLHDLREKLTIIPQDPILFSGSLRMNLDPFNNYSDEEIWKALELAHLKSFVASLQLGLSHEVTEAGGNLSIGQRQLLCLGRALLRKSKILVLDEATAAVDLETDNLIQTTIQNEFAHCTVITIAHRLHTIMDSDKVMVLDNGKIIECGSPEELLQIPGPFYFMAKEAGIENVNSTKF

[3] = biological target: ATP-binding cassette sub-family C member 3 (Homo sapiens, UniProt O15438); test: Inhibition of human MRP3 overexpressed in Sf9 insect cell membrane vesicles assessed as uptake of [3H]-estradiol-17beta-D-glucuronide in presence of ATP and GSH measured after 10 mins by membrane vesicle transport assay; type: ADME, cell-based
ATP-binding cassette sub-family C member 3, sequence (O15438 whole entry): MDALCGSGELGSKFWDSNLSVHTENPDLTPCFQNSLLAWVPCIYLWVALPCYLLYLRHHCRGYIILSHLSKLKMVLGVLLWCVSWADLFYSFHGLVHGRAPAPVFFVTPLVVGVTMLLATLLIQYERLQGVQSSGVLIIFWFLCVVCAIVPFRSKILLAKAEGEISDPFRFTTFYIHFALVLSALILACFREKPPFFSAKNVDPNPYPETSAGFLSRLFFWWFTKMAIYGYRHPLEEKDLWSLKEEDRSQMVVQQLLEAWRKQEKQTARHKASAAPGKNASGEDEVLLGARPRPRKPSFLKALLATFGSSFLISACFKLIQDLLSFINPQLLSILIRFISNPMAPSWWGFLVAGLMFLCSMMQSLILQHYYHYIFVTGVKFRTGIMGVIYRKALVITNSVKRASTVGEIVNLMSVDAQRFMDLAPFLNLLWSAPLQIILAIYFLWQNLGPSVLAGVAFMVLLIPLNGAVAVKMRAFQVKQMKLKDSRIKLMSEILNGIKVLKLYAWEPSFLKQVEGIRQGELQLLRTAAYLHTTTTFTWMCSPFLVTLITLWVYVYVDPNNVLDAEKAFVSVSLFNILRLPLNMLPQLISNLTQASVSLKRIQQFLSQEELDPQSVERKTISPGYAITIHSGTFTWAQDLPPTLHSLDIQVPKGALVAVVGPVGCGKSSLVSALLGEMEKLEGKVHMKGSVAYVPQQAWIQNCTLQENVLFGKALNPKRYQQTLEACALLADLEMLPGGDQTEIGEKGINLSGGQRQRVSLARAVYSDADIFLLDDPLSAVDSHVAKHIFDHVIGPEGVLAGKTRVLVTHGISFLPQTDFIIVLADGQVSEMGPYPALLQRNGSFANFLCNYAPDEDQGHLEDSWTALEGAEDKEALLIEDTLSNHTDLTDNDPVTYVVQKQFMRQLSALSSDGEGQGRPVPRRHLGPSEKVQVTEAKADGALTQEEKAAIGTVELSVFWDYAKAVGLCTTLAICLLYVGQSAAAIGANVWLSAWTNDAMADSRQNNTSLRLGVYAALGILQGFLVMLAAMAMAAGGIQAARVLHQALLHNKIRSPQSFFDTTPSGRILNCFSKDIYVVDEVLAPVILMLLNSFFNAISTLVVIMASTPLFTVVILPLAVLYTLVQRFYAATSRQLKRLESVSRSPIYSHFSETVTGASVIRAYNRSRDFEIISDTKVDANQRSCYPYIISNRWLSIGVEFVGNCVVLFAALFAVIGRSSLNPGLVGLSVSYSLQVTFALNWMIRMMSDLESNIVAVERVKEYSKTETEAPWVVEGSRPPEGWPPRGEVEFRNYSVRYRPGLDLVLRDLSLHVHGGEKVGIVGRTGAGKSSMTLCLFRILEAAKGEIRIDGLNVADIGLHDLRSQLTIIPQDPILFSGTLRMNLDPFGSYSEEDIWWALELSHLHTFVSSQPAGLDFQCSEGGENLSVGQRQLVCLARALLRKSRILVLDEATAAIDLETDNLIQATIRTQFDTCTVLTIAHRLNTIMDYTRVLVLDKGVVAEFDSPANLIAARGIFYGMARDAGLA

[4] = biological target: T1, ATP-binding cassette sub-family C member 4 (Homo sapiens, UniProt O15439); test: Inhibition of human MRP4 overexpressed in Sf9 cell membrane vesicles assessed as uptake of [3H]-estradiol-17beta-D-glucuronide in presence of ATP and GSH measured after 20 mins by membrane vesicle transport assay; type: ADME, cell-based
T1 sequence (O15439 whole entry): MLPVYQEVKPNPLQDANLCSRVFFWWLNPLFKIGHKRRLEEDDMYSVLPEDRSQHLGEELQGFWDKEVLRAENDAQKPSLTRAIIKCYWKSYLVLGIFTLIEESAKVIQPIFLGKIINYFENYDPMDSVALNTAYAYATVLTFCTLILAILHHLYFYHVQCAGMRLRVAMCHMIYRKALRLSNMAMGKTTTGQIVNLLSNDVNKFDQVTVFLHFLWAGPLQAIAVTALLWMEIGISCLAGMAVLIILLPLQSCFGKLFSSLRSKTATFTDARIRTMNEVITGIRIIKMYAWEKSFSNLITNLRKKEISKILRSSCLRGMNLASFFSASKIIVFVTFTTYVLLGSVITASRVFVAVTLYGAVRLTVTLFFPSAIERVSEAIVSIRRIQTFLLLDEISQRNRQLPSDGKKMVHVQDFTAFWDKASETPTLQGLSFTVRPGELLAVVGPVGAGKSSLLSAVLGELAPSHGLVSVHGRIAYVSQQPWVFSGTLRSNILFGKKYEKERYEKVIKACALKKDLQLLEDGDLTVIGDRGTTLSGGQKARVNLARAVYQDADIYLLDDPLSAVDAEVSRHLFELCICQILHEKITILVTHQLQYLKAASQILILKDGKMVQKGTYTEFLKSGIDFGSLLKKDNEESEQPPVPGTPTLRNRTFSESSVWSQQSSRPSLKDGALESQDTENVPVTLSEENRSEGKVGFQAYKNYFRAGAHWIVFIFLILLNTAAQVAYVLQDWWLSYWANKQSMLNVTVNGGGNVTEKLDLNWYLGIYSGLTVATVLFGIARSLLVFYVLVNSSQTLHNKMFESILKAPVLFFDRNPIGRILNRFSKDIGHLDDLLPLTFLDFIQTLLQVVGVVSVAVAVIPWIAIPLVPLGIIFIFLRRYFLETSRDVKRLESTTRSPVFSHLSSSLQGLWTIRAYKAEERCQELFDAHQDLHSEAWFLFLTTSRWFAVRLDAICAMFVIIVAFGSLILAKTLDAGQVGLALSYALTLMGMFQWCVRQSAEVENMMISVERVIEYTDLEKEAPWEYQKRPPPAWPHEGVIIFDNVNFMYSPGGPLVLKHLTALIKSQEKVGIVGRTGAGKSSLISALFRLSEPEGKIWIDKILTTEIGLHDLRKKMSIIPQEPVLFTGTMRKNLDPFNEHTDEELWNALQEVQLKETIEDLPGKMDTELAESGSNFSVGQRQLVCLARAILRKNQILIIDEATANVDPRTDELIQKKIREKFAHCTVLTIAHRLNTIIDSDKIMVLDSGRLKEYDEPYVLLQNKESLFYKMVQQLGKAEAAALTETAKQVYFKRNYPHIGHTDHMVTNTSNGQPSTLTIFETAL

Bile salt export pump, sequence (O95342 whole entry): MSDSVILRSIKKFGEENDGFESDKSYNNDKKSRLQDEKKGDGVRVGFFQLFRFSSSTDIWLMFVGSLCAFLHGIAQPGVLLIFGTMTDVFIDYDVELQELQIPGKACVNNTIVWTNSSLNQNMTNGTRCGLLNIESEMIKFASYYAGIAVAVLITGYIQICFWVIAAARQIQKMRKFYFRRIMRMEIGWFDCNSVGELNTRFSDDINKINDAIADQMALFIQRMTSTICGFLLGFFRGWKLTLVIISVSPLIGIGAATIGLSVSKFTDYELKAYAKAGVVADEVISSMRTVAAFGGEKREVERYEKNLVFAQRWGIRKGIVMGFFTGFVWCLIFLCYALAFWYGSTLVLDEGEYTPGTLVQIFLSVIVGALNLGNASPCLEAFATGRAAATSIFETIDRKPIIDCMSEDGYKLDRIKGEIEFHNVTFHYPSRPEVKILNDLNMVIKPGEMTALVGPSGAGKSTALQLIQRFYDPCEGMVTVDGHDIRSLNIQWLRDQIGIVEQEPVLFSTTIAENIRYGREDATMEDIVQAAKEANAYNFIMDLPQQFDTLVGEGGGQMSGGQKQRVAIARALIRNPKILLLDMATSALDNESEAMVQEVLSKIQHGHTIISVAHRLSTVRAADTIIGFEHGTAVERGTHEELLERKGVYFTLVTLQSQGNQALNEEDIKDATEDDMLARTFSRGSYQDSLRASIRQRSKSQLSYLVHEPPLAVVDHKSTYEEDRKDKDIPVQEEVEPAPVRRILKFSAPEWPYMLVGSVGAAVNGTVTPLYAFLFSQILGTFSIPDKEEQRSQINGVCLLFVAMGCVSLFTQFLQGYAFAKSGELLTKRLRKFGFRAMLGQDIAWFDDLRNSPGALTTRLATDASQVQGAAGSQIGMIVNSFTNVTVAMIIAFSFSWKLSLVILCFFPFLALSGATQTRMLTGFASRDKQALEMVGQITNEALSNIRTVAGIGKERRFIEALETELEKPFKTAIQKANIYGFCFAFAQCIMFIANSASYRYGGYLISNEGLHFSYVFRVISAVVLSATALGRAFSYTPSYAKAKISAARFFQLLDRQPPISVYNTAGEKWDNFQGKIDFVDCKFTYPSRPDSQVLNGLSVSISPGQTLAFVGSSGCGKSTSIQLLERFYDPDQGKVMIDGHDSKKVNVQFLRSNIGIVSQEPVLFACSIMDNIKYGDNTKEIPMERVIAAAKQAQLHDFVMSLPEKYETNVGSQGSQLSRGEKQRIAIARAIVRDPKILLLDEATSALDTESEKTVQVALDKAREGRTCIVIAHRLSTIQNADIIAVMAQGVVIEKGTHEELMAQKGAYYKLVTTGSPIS

| Compound | IC50 [1] [µM] | IC50 [2] [µM] | IC50 [3] [µM] | IC50 [4] [µM] |
| --- | --- | --- | --- | --- |
| COc1cc(NS(C)(=O)=O)ccc1Nc1c2ccccc2nc2ccccc12 [AMSACRINE] | > 133 | > 133 | > 133 | 7.43 |
| CCCNCC(O)COc1ccccc1C(=O)CCc1ccccc1 (centres undefined) [PROPAFENONE] | > 133 | > 133 | > 133 | > 133 |
| COc1ccc(CC2c3cc(OC)c(OC)cc3CC[N+]2(C)CCC(=O)OCCCCCOC(=O)CC[N+]2(C)CCc3cc(OC)c(OC)cc3C2Cc2ccc(OC)c(OC)c2)cc1OC (centres undefined) [ATRACURIUM BESYLATE] | > 133 | > 133 | > 133 | > 133 |
| CC[C@@H](C(N)=O)N1CCCC1=O | > 133 | > 133 | > 133 | > 133 |
| O=C(NCCN1CCOCC1)c1ccc(Cl)cc1 [MOCLOBEMIDE] | > 133 | > 133 | > 133 | > 133 |
| O=C(NCCNCC(O)COc1ccc(O)cc1)N1CCOCC1 (centres undefined) [XAMOTEROL] | > 133 | > 133 | > 133 | > 133 |
| CC1COc2c(N3CCN(C)CC3)c(F)cc3c(=O)c(C(=O)O)cn1c23 (centres undefined) [OFLOXACIN] | > 133 | > 133 | > 133 | > 133 |
| CCN[C@H]1CN(CCCOC)S(=O)(=O)c2sc(S(N)(=O)=O)cc21 [BRINZOLAMIDE] | > 133 | > 133 | > 133 | > 133 |
| CN(C)CCOc1ccc(/C(=C(/CCCl)c2ccccc2)c2ccccc2)cc1 [TOREMIFENE CITRATE] | 115 | > 133 | > 133 | > 133 |
| COc1ccc2[nH]cc(CCNC(C)=O)c2c1 [MELATONIN] | > 133 | > 133 | > 133 | > 133 |
| Cc1cnc(C(=O)O)c[n+]1[O-] [ACIPIMOX] | > 133 | > 133 | > 133 | > 133 |
| CC(C)(C)NC[C@H](O)COc1nsnc1N1CCOCC1 [TIMOLOL] | > 133 | > 133 | > 133 | > 133 |
| O=C1c2c(O)cccc2Cc2cccc(O)c21 [ANTHRALIN] | > 133 | > 133 | > 133 | > 133 |
| CCOC(=O)O[C@]1(C(=O)OCCl)CC[C@H]2[C@@H]3CCC4=CC(=O)C=C[C@]4(C)[C@H]3[C@@H](O)C[C@@]21C [LOTEPREDNOL ETABONATE] | 40.4 | > 133 | 15.5 | > 133 |
| NNC(=O)c1ccncc1 [ISONIAZID] | > 133 | > 133 | > 133 | > 133 |
| Cc1cccn2c(=O)c(-c3nnn[nH]3)cnc12 [PEMIROLAST POTASSIUM] | > 133 | > 133 | > 133 | > 133 |
| CC(=O)Nc1c(I)c(NC(C)=O)c(I)c(C(=O)O)c1I [DIATRIZOIC ACID] | > 133 | > 133 | > 133 | > 133 |
| C=CC1=C(C(=O)O)N2C(=O)[C@@H](NC(=O)/C(=N\OCC(=O)O)c3csc(N)n3)[C@H]2SC1 [CEFIXIME] | > 133 | 89.4 | > 133 | > 133 |
| CC(=O)Oc1cccc2c1C(=O)c1c(OC(C)=O)cc(C(=O)O)cc1C2=O [DIACEREIN] | > 133 | > 133 | > 133 | 6.4 |
| C=CC(N)CCC(=O)O (centres undefined) [VIGABATRIN] | > 133 | > 133 | > 133 | > 133 |
| C=CCc1ccccc1OCC(O)CNC(C)C (centres undefined) [ALPRENOLOL] | > 133 | > 133 | > 133 | > 133 |
